Test results: PMC7576996, “Antiparasitic Behavior of Trifluoromethylated Pyrazole 2-Amino-1,3,4-thiadiazole Hybrids and Their Analogues: Synthesis and Structure-Activity Relationship” (Frontiers in Pharmacology, 2020)

What was measured:
[1] = Cytotoxicity assay in J774A1 macrophages (MTT, 48 h); type: cell-based; conditions: mouse, pH 7.2, J774A1, 50% inhibition of growth
Experimental: (§1) All the novel trifluoromethylated pyrazoles derivatives 2a–f, 3a–f, and 4a–f were evaluated against the promastigote form of L. amazonensis and the epimastigote form of T. cruzi. The results are reported as the concentration causing a 50% inhibition in cell growth (IC50). Additionally, the toxicity of compounds was evaluated against two different cell lines: epithelial cell LLCMK2 and macrophages J774A1. The antiproliferative and cytotoxic activities are shown in Table 2 , as well as the calculated selectivity index (SI).
(§2) 2.4. Antiproliferative activity […]
(§3) Cytotoxicity activity was determined in LLCMK2 (epithelial cells of kidney of Macaca
(§4) mulatta) cells and J774A1 macrophages. LLCMK2 (epithelial cells of kidney of Macaca mulatta) cells
(§5) were cultured in Dulbecco’s modified Eagle’s medium (DMEM, pH 7.2) supplemented with 10% FBS
(§6) at 37 °C in a 5% CO2 atmosphere. J774A1 macrophages were cultured in RPMI-1640 (pH 7.2) medium
(§7) supplemented with 10% FBS at 37 °C in a 5% CO2 atmosphere.
(§8) 2.4.2. Dilution of compounds
(§9) Stock solutions of the compounds were prepared in DMSO and then diluted in the respective
(§10) medium. The groups (controls and treated) were tested with DMSO concentrations below 1%, with
(§11) 2.4.3. Antiproliferative assay […]
(§12) 2.4.4. Cytotoxicity assay
(§13) LLCMK2 cells (2.5 × 10^5 cells/mL) suspension was prepared in DMEM medium supplemented
(§14) with 10% FBS and added to 96-well plates. Then, the plates were incubated at 37 °C in a
(§15) CO2 atmosphere for 24h to obtain confluent cell growth. After incubation, cells were treated or not
(§16) with different concentrations of compounds diluted in DMEM for 72 h. Macrophage (5 × 10^5 cells/mL)
(§17) suspension was prepared in RPMI-1640 medium supplemented with 10% FBS and added to 96-well
(§18) plates. Then, the plates were incubated at 37 °C in a CO2 atmosphere for 24h to obtain confluent cell
(§19) growth. After incubation, cells were treated or not with different concentrations of compounds diluted
(§20) in RPMI-1640 for 48h. After treatment, medium was removed and cells were incubated with MTT (2
(§21) mg/mL) for 4h. Then, DMSO was added for solubilization of the formazan and analyzed with a reading
(§22) microplate reader (BIO-TEK PowerWave XS spectrophotometer) at 392 nm. The percentage of viable
(§23) cells was calculated in relation to the control to determine the cytotoxic concentration to 50% of the […]

[2] = tested on: promastigote form of Leishmania amazonensis; assay: Antiproliferative assay, promastigote form of Leishmania amazonensis (XTT, 72 h); type: cell-based; conditions: for SI L-M, selectivity index (Macrophages CC50/L. amazonensis IC50): J774A1 vs promastigotes; for SI L-E, selectivity index (Epithelial CC50/L. amazonensis IC50): LLCMK2 vs promastigotes; for IC50: Leishmania amazonensis, promastigote form, 72 h, mean ± standard deviation, read-out: L. amazonensis IC50
Experimental: as §1
(§24) 2.4. Antiproliferative activity
(§25) Promastigotes forms of Leishmania amazonensis (strain WHOM/ BR/75/JOSEFA) were
(§26) cultured in Warren medium (brain heart infusion, hemin, and folic acid; pH 7.4) supplemented with
(§27) 10% fetal bovine serum (FBS) at 25 °C. Epimastigote forms of Trypanosoma cruzi (Y strain) were
(§28) cultured in LIT medium (liver infusion tryptose; hemim, and folic acid; pH 7.4) supplemented with
as §3, §4, §5, §6, §7, §8, §9, §10
(§29) 2.4.3. Antiproliferative assay
(§30) Promastigote forms (1 × 10^6 parasites/mL) were cultured in 96-well plates in the presence and
(§31) absence of different concentrations of compounds diluted in Warren medium supplemented with 10%
(§32) FBS and incubated for 72h. Epimastigote forms (1 × 10^6 parasites/mL) were cultured in 96 -well plates
(§33) in the presence and absence of different concentrations of compounds diluted in LIT medium
(§34) supplemented with 10% FBS and incubated for 96h. After treatment, the parasites were incu bated with
(§35) a solution of 2,3 -bis (2 -methoxy -4-nitro -5-sulfophenyl) -2H-tetrazolium -5-carboxanilide (XTT; 0.5
(§36) mg/mL) and phenazine methanesulfonate activator (PMS; 0.06 mg/mL) in PBS for 4h. Then, the
(§37) absorbance was read in a microplate reader (Bio Tek - Power Wave XS) at 450 nm. The percentage of
(§38) viable parasites was calculated in relation to the control in order to determine the concentration that
(§39) inhibits 50% of the protozoa (IC 50).
as §12, §13, §14, §15, §16, §17, §18, §19, §20, §21

[3] = Cytotoxicity assay in LLCMK2 epithelial cells (MTT, 72 h); type: cell-based; conditions: Macaca mulatta, LLCMK2 kidney epithelial cells, pH 7.2, LLCMK2, 50% inhibition of growth
Experimental: as §1, §2, §3, §4, §5, §6, §7, §8, §9, §10, §11, §12, §13, §14, §15, §16, §17, §18, §19, §20, §21, §22, §23

[4] = tested on: epimastigote form of Trypanosoma cruzi; assay: Antiproliferative assay, epimastigote form of Trypanosoma cruzi (XTT, 96 h); type: cell-based; conditions: for SI T-M, selectivity index (Macrophages CC50/T. cruzi IC50): J774A1 vs epimastigotes; for SI T-E, selectivity index (Epithelial CC50/T. cruzi IC50): LLCMK2 vs epimastigotes; for IC50: Trypanosoma cruzi, epimastigote form, 96 h, mean ± standard deviation, read-out: T. cruzi IC50
Experimental: as §1, §24, §25, §26, §27, §28, §3, §4, §5, §6, §7, §8, §9, §10, §29, §30, §31, §32, §33, §34, §35, §36, §37, §38, §39, §12, §13, §14, §15, §16, §17, §18, §19, §20, §21

melting point | IC50 [4] | Structure (SMILES) | CC50 at 48 h [1] | SI L-M, selectivity index (Macrophages CC50/L. amazonensis IC50) [2] | SI L-E, selectivity index (Epithelial CC50/L. amazonensis IC50) [2] | IC50 [2] | CC50 at 72 h [3] | SI T-M, selectivity index (Macrophages CC50/T. cruzi IC50) [4] | SI T-E, selectivity index (Epithelial CC50/T. cruzi IC50) [4]
236.7 °C | 29 ± 2.7 µM | Nc1nnc(-c2c(C(F)(F)F)nn(-c3ccccc3)c2-c2ccc([N+](=O)[O-])cc2)s1 [4a, 4-[(2-amino)-1,3,4-thiadiazo-5-yl]-3-trifluoromethyl-5-(4-nitrophenyl)-1-phenyl-1H-pyrazole] | 285 ± 5.6 µM | 14.56 | 10.78 | 19.6 ± 1.5 µM | 211 ± 3.1 µM | 9.84 | 7.29
 | 65.6 ± 2.9 µM | Nc1nnc(-c2c(C(F)(F)F)nn(-c3ccccc3)c2-c2ccccc2)s1 [4e, 4-[(2-amino)-1,3,4-thiadiazo-5-yl]-3-trifluoromethyl-1,5-diphenyl-1H-pyrazole] | 340 ± 5.2 µM | 6.49 | 5.04 | 52.4 ± 3.5 µM | 264 ± 3.2 µM | 5.18 | 4.03

The remaining lines, values behind:

Structure (SMILES) | melting point | IC50 [4] | CC50 at 48 h [1] | SI L-M, selectivity index (Macrophages CC50/L. amazonensis IC50) [2] | SI L-E, selectivity index (Epithelial CC50/L. amazonensis IC50) [2] | IC50 [2] | CC50 at 72 h [3] | SI T-M, selectivity index (Macrophages CC50/T. cruzi IC50) [4] | SI T-E, selectivity index (Epithelial CC50/T. cruzi IC50) [4]
CSC(N)=NN=Cc1c(C(F)(F)F)nn(-c2ccccc2)c1-c1ccc(F)cc1 [3b] | 145.5 °C | 39.9 ± 3.2 µM | 202 ± 3.4 µM | 5.90 | 3.48 | 34.3 ± 4.7 µM | 119 ± 3 µM | 5.07 | 2.99
CSC(N)=NN=Cc1c(C(F)(F)F)nn(-c2ccccc2)c1-c1ccc(Cl)cc1 [3c] | 188.5 °C | 37.2 ± 4.8 µM | 301 ± 3.9 µM | 9.80 | 9.68 | 30.7 ± 2.2 µM | 297 ± 6.1 µM | 8.09 | 7.99
CSC(N)=NN=Cc1c(C(F)(F)F)nn(-c2ccccc2)c1-c1ccc(Br)cc1 [3d] |  | 25.7 ± 2.5 µM | 147 ± 3.6 µM | 10.55 | 8.20 | 13.9 ± 0.6 µM | 114 ± 3.8 µM | 5.71 | 4.44
CSC(N)=NN=Cc1c(C(F)(F)F)nn(-c2ccccc2)c1-c1ccccc1 [3e] | 165.65 °C | 62.4 ± 3.8 µM | 326 ± 4.5 µM | 7.30 | 4.53 | 44.7 ± 5 µM | 202 ± 6.2 µM | 5.23 | 3.25
COc1ccc(-c2c(C=NN=C(N)SC)c(C(F)(F)F)nn2-c2ccccc2)cc1 [3f] |  | 19.1 ± 0.9 µM | 123 ± 3.1 µM | 8.65 | 7.13 | 14.2 ± 1.1 µM | 101 ± 2.4 µM | 6.43 | 5.30
